Measured values: patent US7553966B2, “Glucocorticoid mimetics, methods of making them, pharmaceutical compositions, and uses thereof” (Boehringer Ingelheim Pharmaceuticals, Inc., priority 2002, dated 2009)

molecular target: T1, human glucocorticoid receptor (GR) complex (Homo sapiens, UniProt P04150); assay: Glucocorticoid Receptor Competitive Binding Assay (fluorescence polarization, TAMRA-labeled dexamethasone probe); conditions: qualitative statement; competition with TAMRA-labeled dexamethasone
T1 construct: made in house; host or cells: insect expression system (baculovirus lysate)
T1 sequence (P04150 1-777): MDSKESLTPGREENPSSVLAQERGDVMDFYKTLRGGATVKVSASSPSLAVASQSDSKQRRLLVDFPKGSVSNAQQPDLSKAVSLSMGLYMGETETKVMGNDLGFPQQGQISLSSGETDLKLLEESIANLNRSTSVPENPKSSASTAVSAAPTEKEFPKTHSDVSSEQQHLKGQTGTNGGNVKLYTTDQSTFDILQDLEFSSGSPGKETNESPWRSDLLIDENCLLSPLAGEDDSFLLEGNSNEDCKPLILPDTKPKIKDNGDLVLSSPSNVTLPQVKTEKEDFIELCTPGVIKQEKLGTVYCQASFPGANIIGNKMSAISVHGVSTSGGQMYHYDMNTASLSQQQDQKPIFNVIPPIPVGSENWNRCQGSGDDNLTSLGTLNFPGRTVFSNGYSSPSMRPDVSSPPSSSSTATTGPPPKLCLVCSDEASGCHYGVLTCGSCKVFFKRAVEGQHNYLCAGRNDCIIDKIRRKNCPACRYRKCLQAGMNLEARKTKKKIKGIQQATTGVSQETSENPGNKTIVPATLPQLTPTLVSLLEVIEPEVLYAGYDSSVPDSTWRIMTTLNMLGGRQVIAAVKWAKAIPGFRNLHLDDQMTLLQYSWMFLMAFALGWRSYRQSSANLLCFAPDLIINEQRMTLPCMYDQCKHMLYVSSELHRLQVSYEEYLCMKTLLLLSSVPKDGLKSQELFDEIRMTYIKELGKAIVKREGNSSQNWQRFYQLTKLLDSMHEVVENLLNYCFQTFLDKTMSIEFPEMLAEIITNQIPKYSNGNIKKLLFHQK
Method: Compounds of the invention were evaluated for binding to the steroid receptor by a fluorescence polarization competitive binding assay.
A. Glucocorticoid Receptor Competitive Binding Assay
Step 1. Characterization of the Fluorescent Probe
The wavelengths for maximum excitation and emission of the fluorescent probe should first be measured. An example of such a probe is rhodamine (TAMRA)-labeled dexamethasone.
The affinity of the probe for the steroid receptor was then determined in a titration experiment. The fluorescence polarization value of the probe in assay buffer was measured on an SLM-8100 fluorometer using the excitation and emission maximum values described above. Aliquots of expression vector lysate were added and fluorescence polarization was measured after each addition until no further change in polarization value was observed. Non-linear least squares regression analysis was used to calculate the dissociation constant of the probe from the polarization values obtained for lysate binding to the probe.
Step 2. Screening for Inhibitors of Probe Binding
This assay uses fluorescence polarization (FP) to quantitate the ability of test compounds to compete with tetramethyl rhodamine (TAMRA)-labeled dexamethasone for binding to a human glucocorticoid receptor (GR) complex prepared from an insect expression system. The assay buffer was: 10 mM TES, 50 mM KCl, 20 mM Na2MoO4. 2H2O, 1.5 mM EDTA, 0.04% w/v CHAPS, 10% v/v glycerol, 1 mM dithiothreitol, pH 7.4. Test compounds were dissolved to 1 mM in neat DMSO and then further diluted to 10× assay concentration in assay buffer supplemented with 10% v/v DMSO. Test compounds were serially diluted at 10× assay concentrations in 10% DMSO-containing buffer in 96-well polypropylene plates. […] Positive controls were reaction mixtures containing no test compound; negative controls (blanks) were reaction mixtures containing 0.7 μM to 2 μM dexamethasone. […] IC50 values were determined by iterative non-linear curve fitting of the FP signal data to a 4-parameter logistic equation.

Activity in the GR binding assay, potent activity:
Cc1ccc(F)cc1C(C)(C)CC(O)(Cc1nc2cccc(C)c2[nH]1)C(F)(F)F (stereo not shown) [1,1,1-Trifluoro-4-(5-fluoro-2-methylphenyl)-4-methyl-2-(7-methyl-1H-benzoimidazol-2-ylmethyl)pentan-2-ol], CC(C)(CC(O)(Cc1cc2ccccc2[nH]1)C(F)(F)F)c1ccsc1 (stereo not shown) [1,1,1-Trifluoro-2-(1H-indol-2-ylmethyl)-4-methyl-4-thiophen-3-ylpentan-2-ol], COc1ccc(F)cc1C(C)(C)CC(O)(Cc1nc2cccc(C)c2[nH]1)C(F)(F)F (stereo not shown) [1,1,1-Trifluoro-4-(5-fluoro-2-methoxyphenyl)-4-methyl-2-(7-methyl-1H-benzoimidazol-2-ylmethyl)pentan-2-ol], CC(C)(CC(O)(Cc1cc2ccncc2[nH]1)C(F)(F)F)c1ccc(F)cc1 (stereo not shown) [1,1,1-Trifluoro-4-(4-fluorophenyl)-4-methyl-2-(1H-pyrrolo[2,3-c]pyridin-2-ylmethyl)pentan-2-ol], CC(C)(CC(O)(Cc1cc2ccccc2[nH]1)C(F)(F)F)c1cc(C#N)cc2c1OCC2 (stereo not shown) [4-(2,3-dihydro-5-cyanobenzofuran-7-yl)-1,1,1-trifluoro-2-(1H-indol-2-ylmethyl)-4-methylpentan-2-ol], Cc1ccc(C(C)(C)CC(O)(Cc2cc3ccccc3[nH]2)C(F)(F)F)cc1 (stereo not shown) [1,1,1-Trifluoro-2-(1H-indol-2-ylmethyl)-4-methyl-4-p-tolylpentan-2-ol], CC(C)(CC(O)(Cc1cc2cccc(F)c2[nH]1)C(F)(F)F)c1cc(F)ccc1O (stereo not shown) [4-Fluoro-2-[4,4,4-trifluoro-3-(7-fluoro-1H-indol-2-ylmethyl)-3-hydroxy-1,1-dimethylbutyl]phenol], COc1ccc(F)cc1C(C)(C)CC(O)(Cn1cc(C#N)c2ccccc21)C(F)(F)F (stereo not shown) [1-[4-(5-Fluoro-2-methoxyphenyl)-2-hydroxy-4-methyl-2-trifluoromethylpentyl]-1H-indole-3-carbonitrile], COc1ccc(C(C)(C)CC(O)(Cc2cc3ccccc3[nH]2)C(F)(F)F)cc1 (stereo not shown) [1,1,1-Trifluoro-2-(1H-indol-2-ylmethyl)-4-(4-methoxyphenyl)-4-methylpentan-2-ol], CC(C)(CC(O)(Cc1cc2cccc(F)c2[nH]1)C(F)(F)F)c1ccc(F)cc1O (stereo not shown) [5-Fluoro-2-[4,4,4-trifluoro-3-(7-fluoro-1H-indol-2-ylmethyl)-3-hydroxy-1,1-dimethylbutyl]phenol], COc1ccc(F)cc1C(C)(C)CC(O)(Cc1cc2cccnc2[nH]1)C(F)(F)F (stereo not shown) [1,1,1-Trifluoro-4-(5-fluoro-2-methoxyphenyl)-4-methyl-2-(1H-pyrrolo[2,3-b]pyridin-2-ylmethyl)pentan-2-ol], CC(C)(CC(O)(Cc1cc2cnccc2[nH]1)C(F)(F)F)c1cccc(F)c1 (stereo not shown) [1,1,1-Trifluoro-4-(3-fluorophenyl)-4-methyl-2-(1H-pyrrolo[3,2-c]pyridin-2-ylmethyl)pentan-2-ol], COc1ccc(F)cc1C(C)(C)CC(O)(Cc1cc2cc(F)ccc2[nH]1)C(F)(F)F (stereo not shown) [1,1,1-Trifluoro-2-(5-fluoro-1H-indol-2-ylmethyl)-4-(5-fluoro-2-methoxyphenyl)-4-methylpentan-2-ol], CC(C)(CC(O)(Cc1cc2ccccc2[nH]1)C(F)(F)F)c1ccc2ccccc2c1 (stereo not shown) [1,1,1-Trifluoro-2-(1H-indol-2-ylmethyl)-4-methyl-4-naphthalen-2-ylpentan-2-ol], CC(C)(CC(O)(Cc1cc2cnccc2[nH]1)C(F)(F)F)c1ccc(F)cc1O (stereo not shown) [5-Fluoro-2-[4,4,4-trifluoro-3-hydroxy-1,1-dimethyl-3-(1H-pyrrolo[3,2-c]pyridin-2-ylmethyl)butyl]phenol], CC(C)(CC(O)(Cc1cc2ccccc2[nH]1)C(F)(F)F)c1ccccc1 (stereo not shown) [1,1,1-Trifluoro-2-(1H-indol-2-ylmethyl)-4-methyl-4-phenylpentan-2-ol], COc1cccc(C(C)(C)CC(O)(Cc2cc3cc(C(F)(F)F)ccc3[nH]2)C(F)(F)F)c1 (stereo not shown) [1,1,1-Trifluoro-4-(3-methoxyphenyl)-4-methyl-2-(5-trifluoromethyl-1H-indol-2-ylmethyl)pentan-2-ol], CC(C)(CC(O)(Cc1[nH]c2ccccc2c1C#N)C(F)(F)F)c1cccc2c1OCC2 (stereo not shown), CC(C)(CC(O)(Cc1cc2cc(C#N)ccc2[nH]1)C(F)(F)F)c1cccc(F)c1 (stereo not shown) [2-[4-(3-Fluorophenyl)-2-hydroxy-4-methyl-2-trifluoromethylpentyl]-1H-indole-5-carbonitrile], CC(C)(CC(O)(Cc1ccnc2ccccc12)C(F)(F)F)c1cccc2c1OCCC2 (stereo not shown) [4-Chroman-8-yl-1,1,1-trifluoro-4-methyl-2-quinolin-4-ylmethylpentan-2-ol], CCc1cccc(C(C)(C)CC(O)(Cc2ccnc3ccccc23)C(F)(F)F)c1OC (stereo not shown) [4-(3-Ethyl-2-methoxyphenyl)-1,1,1-trifluoro-4-methyl-2-quinolin-4-ylmethylpentan-2-ol], CC(C)(CC(O)(Cc1cc2ccncc2[nH]1)C(F)(F)F)c1cc(F)cc2c1OCC2 (stereo not shown) [1,1,1-Trifluoro-4-(5-fluoro-2,3-dihydrobenzofuran-7-yl)-4-methyl-2-(1H-pyrrolo[2,3-c]pyridin-2-ylmethyl)pentan-2-ol], COc1ccc(F)cc1C(C)(C)CC(O)(Cn1cc(C)nc1-c1ccccc1)C(F)(F)F (stereo not shown) [2-(2-Phenyl-4-methylimidazol-1-ylmethyl)-1,1,1-trifluoro-4-(5-fluoro-2-methoxyphenyl)-4-methylpentan-2-ol], COc1ccc(F)cc1C(C)(C)CC(O)(Cc1cc2ccccc2[nH]1)CC1CC1 (stereo not shown) [1-Cyclopropyl-4-(5-fluoro-2-methoxyphenyl)-2-(indol-2-ylmethyl)-4-methylpentan-2-ol], COc1ccc(F)cc1C(C)(C)CC(O)(Cc1nc2ccccc2[nH]1)C(F)(F)F (stereo not shown) [2-(1H-Benzimidazol-2-ylmethyl)-1,1,1-trifluoro-4-(5-fluoro-2-methoxyphenyl)-4-methylpentan-2-ol], COc1ccc(F)cc1C(C)(C)CC(O)(Cc1cc2ccccc2[nH]1)C(C)C (stereo not shown) [5-(5-Fluoro-2-methoxyphenyl)-3-(indol-2-ylmethyl)-2,5-dimethylhexan-3-ol], COc1ccc(F)cc1C(C)(C)CC(O)(Cc1nc2ccc(F)cc2[nH]1)C(F)(F)F (stereo not shown) [1,1,1-Trifluoro-2-(6-fluoro-1H-benzoimidazol-2-ylmethyl)-4-(5-fluoro-2-methoxyphenyl)-4-methylpentan-2-ol], COc1ccc(F)cc1C(C)(C)CC(O)(Cc1ccnc(Br)c1)C(F)(F)F (stereo not shown) [1,1,1-Trifluoro-4-(5-fluoro-2-methoxyphenyl)-4-methyl-2-(2-bromopyridin-4-ylmethyl)pentan-2-ol]
